Experimental data reported in ChEMBL document CHEMBL1137488, “Strategies toward improving the brain penetration of macrocyclic tertiary carbinamine BACE-1 inhibitors” (Bioorg Med Chem Lett, 2007).

Tests used:
[1] = test system: P-glycoprotein; assay: Apparent permeability in human KBV1 cells overexpressing P-glycoprotein; assay type: ADME, cell-based, KB-V1
[2] = Drug level in mouse brain at 30 mg/kg, ip after 2 hrs; assay type: ADME, organism-based; design: dose 30 mg/kg, route intraperitoneal; settings: read-out: Drug uptake

Papp [1] [×10⁻⁶ cm/s] | concentration at 2 h [2] [nM] | SMILES
20 |  | CN(c1cc2cc(n1)N(Cc1ccccc1)CCCCc1cccc(c1)C[C@@](C)(N)C(=O)OC2)S(C)(=O)=O
14 | 637 | CC1CCc2cccc(c2)C[C@@](C)(N)C(=O)OCc2cc(nc(N(C)S(C)(=O)=O)c2)CC1 (stereo partly drawn)
9 |  | CN(c1cc2cc(n1)CCC(c1ccccc1)CCc1cccc(c1)C[C@@](C)(N)C(=O)OC2)S(C)(=O)=O (stereo partly drawn)
11 |  | CN(c1cc2cc(n1)NCCCCc1cccc(c1)C[C@@](C)(N)C(=O)OC2)S(C)(=O)=O
8 |  | CN(c1cc2cc(n1)N(CC1CC1)CCCCc1cccc(c1)C[C@@](C)(N)C(=O)OC2)S(C)(=O)=O
16 |  | CC1CCc2cccc(c2)C[C@@](C)(N)C(=O)OCc2cc(cc(N(C)S(C)(=O)=O)c2)CC1 (stereo partly drawn)
29 |  | CN(c1cc2cc(n1)CCCCCc1cccc(c1)C[C@@](C)(N)C(=O)OC2)S(C)(=O)=O
